Earlier results in patent publication US11439651B2 (priority 2020, dated 2022).

Legend:
SARS = settings: pre-treatment with low concentrations; cultured cells or freshly obtained human nasal epithelial cells
SARS particles = settings: cultured human cells with SARS particles added

**Q.** With CCCCCCCCCCCCC/C=C/[C@@H](O)[C@@H](N)CO [sphingosine] as the compound, how does the “adhesion of and infection with the virus” value (SARS) read?
**A.** prevented adhesion of and infection with the virus

**Q.** What about the cellular infection (SARS particles) of the same compound?
**A.** prevented cellular infection
